From patent US12685297B2, “Genetically modified mouse, methods for producing the same, and uses thereof” (MacKay Memorial Hospital, priority 2023, dated 2026)

Tested on: GYP.Mur knock-in mice and control mice
Experiment: Evaluation of anti-hypertensive medications: blood pressure after oral gavage
Assay type: in vivo, mouse (C57BL/6J)
Experimental: Mouse BP was measured using an 8-channel non-invasive blood pressure system, a conventional instrument for murine BP measurements with about 99% correlation to the invasive telemetry approach. The BP system is a traditional, tail-cuff method, with a volume-pressure recording (VPR) sensor-cuff (similar to a stethoscope) and an occlusion cuff (similar to the arm cuff for conventional human BP measurement). The instrument settings in this study were 5 acclimation cycles, 15 cycles per set, 250 mmHg as the maximal occlusion pressure, and 20 seconds for deflation. Before the measurement, the experimenter gently placed a mouse in a holder or at the entry point of the holder, from which the mouse could voluntarily walked into the holder. An occlusion cuff and a VPR cuff were then fitted onto the mouse tail. The holder carrying a cuffed mouse inside was moved to the warming platform and covered with a thermal blanket, which ensured the temperature of the tail to be within 32-35° C. during volume-pressure-based BP measurements. Invalid measurements were mostly due to unmet tail temperature or restless states of the animal, which were identified and excluded. After BP measurements, the mice were immediately put back to their own cage. The body weight (BW) of each mouse was measured for preparation of individual anti-hypertensive doses (in mg drug per Kg BW). The mice were individually administered by oral gavage of an anti-hypertensive drug mixed in 100 μL autoclaved ddH2O. The dose and maximal efficacy of an anti-hypertensive drug was determined based on the degrees of BP drop within an hour of anti-hypertensive administration. One dose of an anti-hypertensive drug was tested on a single day. On the morning of the test day, the blood pressure of GYP.Mur knock-in mice and age-matched control mice (wild-type mice) was first measured. Only the mice with SBP>120 mmHg on that day were tested with an anti-hypertensive medication. The BP and heart rates (HR) of the mice were measured at the 1st, 3rd, 5th, and the 24th hour post-medication. […]

## CCOC(=O)C1=C(COCCN)NC(C)=C(C(=O)OC)C1c1ccccc1Cl (stereo not drawn) [amlodipine]
Following oral gavage, control and GYP.Mur knock-in mice
  duration of sustained BP-lowering effects: 5 h

## C[C@H](CS)C(=O)N1CCC[C@H]1C(=O)O [captopril]
3rd hour post-oral gavage, compared with one hour, data not shown
  BP-lowering effects at the 3rd hour post-oral gavage: slightly diminished
Oral gavage, control and GYP.Mur knock-in mice, data not shown
  time after medication at which BP was lowered most substantially: one
